Patent publication US9193722B2, “Tri-cyclic pyrazolopyridine kinase inhibitors” (Vertex Pharmaceuticals Incorporated, priority 2008, dated 2015)

Key:
Type in all cases: biochemical
PKC alpha kinase = PKC alpha kinase (Homo sapiens, UniProt P17252); assay: PKC alpha kinase inhibition, coupled-enzyme (NADH absorbance) assay, Ki; conditions: 130 μM ATP, 4.5 nM PKC alpha kinase, 30° C.
Description: (§1) An assay buffer solution was prepared which consisted of 100 mM HEPES (pH 7.5), 10 mM MgCl2, 25 mM NaCl, 0.1 mM EDTA, 100 μM CaCl2 and 0.01% Brij. […] To 16 μL of this enzyme buffer, in a 384 well plate, was added 1 μL of VRT stock solution in DMSO. The mixture was allowed to equilibrate for 10 mins at 30° C. The enzyme reaction was initiated by the addition of 16 μL stock ATP solution prepared in assay buffer to a final assay concentration of 130 μM. Initial rate data was determined from the rate of change of absorbance at 340 nm (corresponding to stoichiometric consumption of NADH) using a Molecular Devices Spectramax plate reader (Sunnyvale, Calif.) over 15 mins at 30° C. […] Ki values were calculated from initial rate data by non-linear regression using the Prism software package (Prism 4.0a, Graphpad Software, San Diego, Calif.).

PKC delta kinase = PKC delta kinase (Homo sapiens, UniProt Q05655); assay: PKC delta kinase inhibition, coupled-enzyme (NADH absorbance) assay, Ki; conditions: 150 μM ATP, 46 nM PKC delta kinase, 30° C.; read-out: Ki PKC delta
Chain of PKC delta kinase (Q05655 whole entry): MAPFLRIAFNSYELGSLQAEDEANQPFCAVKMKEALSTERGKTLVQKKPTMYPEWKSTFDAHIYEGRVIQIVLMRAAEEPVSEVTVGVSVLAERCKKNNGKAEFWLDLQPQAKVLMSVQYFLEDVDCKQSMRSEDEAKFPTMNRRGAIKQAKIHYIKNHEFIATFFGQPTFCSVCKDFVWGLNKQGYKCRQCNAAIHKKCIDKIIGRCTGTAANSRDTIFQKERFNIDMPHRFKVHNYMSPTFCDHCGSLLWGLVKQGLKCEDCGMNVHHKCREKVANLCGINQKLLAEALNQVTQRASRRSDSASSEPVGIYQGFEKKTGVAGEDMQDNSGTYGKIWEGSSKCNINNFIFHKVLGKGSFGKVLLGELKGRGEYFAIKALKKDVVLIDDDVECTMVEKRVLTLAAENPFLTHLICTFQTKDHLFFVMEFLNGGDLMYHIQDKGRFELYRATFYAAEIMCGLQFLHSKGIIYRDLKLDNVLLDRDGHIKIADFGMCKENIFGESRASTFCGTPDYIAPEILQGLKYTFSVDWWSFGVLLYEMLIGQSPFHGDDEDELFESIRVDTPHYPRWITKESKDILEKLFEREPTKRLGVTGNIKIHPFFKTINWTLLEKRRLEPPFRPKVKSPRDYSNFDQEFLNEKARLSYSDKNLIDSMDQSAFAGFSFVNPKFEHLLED
Description: as §1, with “EDTA” for “EDTA, 100 μM CaCl2”, “150” for “130”

PKC theta kinase = PKC theta kinase (Homo sapiens, UniProt Q04759); assay: PKC theta kinase inhibition, coupled-enzyme (NADH absorbance) assay, Ki; conditions: 240 μM ATP, 18 nM PKC theta kinase, 30° C.
Chain of PKC theta kinase (Q04759 whole entry): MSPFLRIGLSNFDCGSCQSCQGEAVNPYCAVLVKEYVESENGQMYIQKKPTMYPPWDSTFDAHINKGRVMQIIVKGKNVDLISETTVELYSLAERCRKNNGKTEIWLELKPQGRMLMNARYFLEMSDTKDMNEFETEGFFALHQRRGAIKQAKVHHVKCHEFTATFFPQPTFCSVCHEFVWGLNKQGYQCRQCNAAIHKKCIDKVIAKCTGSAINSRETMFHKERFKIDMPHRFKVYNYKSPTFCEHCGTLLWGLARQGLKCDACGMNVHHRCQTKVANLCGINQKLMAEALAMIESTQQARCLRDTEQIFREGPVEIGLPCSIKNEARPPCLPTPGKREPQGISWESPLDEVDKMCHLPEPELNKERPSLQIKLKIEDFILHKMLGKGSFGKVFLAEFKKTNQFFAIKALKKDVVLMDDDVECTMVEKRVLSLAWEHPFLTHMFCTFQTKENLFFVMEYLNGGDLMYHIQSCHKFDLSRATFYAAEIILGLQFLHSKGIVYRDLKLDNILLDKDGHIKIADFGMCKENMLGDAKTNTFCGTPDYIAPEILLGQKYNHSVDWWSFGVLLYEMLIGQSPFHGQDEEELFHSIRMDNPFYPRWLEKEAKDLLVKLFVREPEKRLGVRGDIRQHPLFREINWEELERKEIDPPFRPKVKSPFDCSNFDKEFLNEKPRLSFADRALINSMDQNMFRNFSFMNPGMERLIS
Description: An assay buffer solution was prepared which consisted of 100 mM HEPES (pH 7.5), 10 mM MgCl2, 25 mM NaCl, 0.1 mM EDTA and 0.01% Brij. […] To 60 μL of this enzyme buffer, in a 384 well plate, was added 2 μL of VRT stock solution in DMSO. The mixture was allowed to equilibrate for 10 mins at 30° C. […] Ki values were calculated from initial rate data by non-linear regression using the Prism software package (Prism 4.0a, Graphpad Software, San Diego, Calif.).

| SMILES | Ki (PKC alpha kinase) [nM] | Ki (PKC delta kinase) [nM] | Ki (PKC theta kinase) [nM] |
| --- | --- | --- | --- |
| CC(C)(F)C(C)(O)C1CN(c2ccc(F)c(-c3n[nH]c4ncccc34)n2)CCN1 (stereo not shown) [Compound 254] | > 1250 | < 50 | < 1 |
| NCC1CCCN(c2ccc(F)c(-c3n[nH]c4ncccc34)n2)C1 (stereo not shown) [Compound 327] | > 1250 | > 1250 | < 500 |
| CC(C)C(N)C1CN(c2ccc(F)c(-c3n[nH]c4ncccc34)n2)CCO1 (stereo not shown) [Compound 346] | > 1250 | < 2800 | < 50 |
| CC(C)(N)C1CCN(c2ccc(C(F)(F)F)c(-c3n[nH]c4ncccc34)n2)C1 (stereo not shown) [Compound 361] | > 1250 | > 1250 | > 700 |
| CCC(N)C1(C(F)(F)F)CCN(c2ccc(F)c(-c3n[nH]c4ncccc34)n2)C1 (stereo not shown) [Compound 449] | – | > 1250 | > 700 |
| CN1CCN(c2cccc(-c3n[nH]c4ncccc34)n2)CC1 [Compound 26] | > 1250 | > 2000 | < 500 |
| CC(C)(O)C1CN(c2cccc(-c3n[nH]c4ncccc34)n2)CCN1 (stereo not shown) [Compound 105] | > 1250 | < 500 | < 50 |
| CC(C)CC1(C)CN(c2ccc(F)c(-c3n[nH]c4ncccc34)n2)CCC1N (stereo not shown) [Compound 385] | < 500 | < 500 | < 50 |
| CC(C)CC1CN(c2ccc(C(F)(F)F)c(-c3n[nH]c4ncccc34)n2)CCC1CN (stereo not shown) [Compound 350] | > 1250 | > 1250 | < 50 |
| CC(C)C(C)(O)C1CN(c2ccc(F)c(-c3n[nH]c4ncccc34)n2)CCN1 (stereo not shown) [Compound 200] | > 1250 | > 1250 | – |
| CC(C)(C)C(N)C1CCN(c2ccc(F)c(-c3n[nH]c4ncccc34)n2)C1 (stereo not shown) [Compound 422] | – | < 2800 | – |
| CC1(C#N)CCN(c2ccc(C(F)(F)F)c(-c3n[nH]c4ncccc34)n2)CC1 [Compound 415] | > 1250 | – | > 700 |
| CC(C)(C)CC(N)C1CCCN(c2ccc(F)c(-c3n[nH]c4ncccc34)n2)C1 (stereo not shown) [Compound 318] | – | < 2800 | – |
| CC(C)[C@H]1CN(c2cccc(-c3n[nH]c4ncccc34)n2)CCN1 [Compound 62] | < 2800 | – | – |
| CC(C)C(C)(O)C1CN(c2ccc(F)c(-c3n[nH]c4ncccc34)n2)CCN1 (stereo not shown) [Compound 180] | > 1250 | < 500 | – |
| CC[C@@H]1CN(c2cccc(-c3n[nH]c4ncccc34)n2)CCN1 [Compound 67] | < 2800 | – | – |
| C[C@@H]1CN(c2cccc(-c3n[nH]c4ncccc34)n2)CCN1 [Compound 70] | > 1250 | – | – |
| CC1(C#N)CCN(c2ccc(F)c(-c3n[nH]c4ncccc34)n2)CC1 [Compound 416] | > 1250 | – | > 700 |
| CC(O)(c1ccccc1)C1CN(c2ccc(F)c(-c3n[nH]c4ncccc34)n2)CCN1 (stereo not shown) [Compound 323] | – | < 2800 | < 50 |
| CC(O)(C1CC1)C1CN(c2ccc(F)c(-c3n[nH]c4ncccc34)n2)CCN1 (stereo not shown) [Compound 271] | > 1250 | < 500 | – |

| SMILES | Ki (PKC alpha kinase) [nM] | Ki (PKC delta kinase) [nM] | Ki (PKC theta kinase) [nM] |
| --- | --- | --- | --- |
| CC(C)C(C)(O)C1CN(c2ccc(F)c(-c3n[nH]c4ncccc34)n2)CCN1 (stereo not shown) [Compound 201] | < 2800 | < 500 | – |
| COC[C@H]1CN(c2ccc(F)c(-c3n[nH]c4ncccc34)n2)CCN1 [Compound 185] | > 1250 | – | – |
| C[C@H]1CN(c2cccc(-c3n[nH]c4ncccc34)n2)CCN1 [Compound 19] | > 1250 | – | – |
| CC(O)(C1CC1)C1CN(c2ccc(F)c(-c3n[nH]c4ncccc34)n2)CCN1 (stereo not shown) [Compound 272] | > 1250 | < 500 | – |
| COC(C)(C(C)C)C1CN(c2ccc(F)c(-c3n[nH]c4ncccc34)n2)CCN1 (stereo not shown) [Compound 239] | > 1250 | – | – |
| CC(C)C(C)(O)C1CN(c2cc(CO)cc(-c3n[nH]c4ncccc34)n2)CCN1 (stereo not shown) [Compound 455] | > 1250 | – | – |
| CCC(CC)C(N)C1CCCN(c2ccc(F)c(-c3n[nH]c4ncccc34)n2)C1 (stereo not shown) [Compound 392] | – | > 1250 | – |
| c1cc(-c2n[nH]c3ncccc23)nc(N2CCNCC2)c1 [Compound 9] | < 2800 | – | – |
| CC(C)C(C)(O)C1CN(c2cccc(-c3n[nH]c4ncccc34)n2)CCN1 (stereo not shown) [Compound 178] | – | – | < 50 |
| CC(C)CC1(C)CN(c2ccc(C(F)(F)F)c(-c3n[nH]c4ncccc34)n2)CCC1N (stereo not shown) [Compound 158] | < 500 | – | – |
| CC(C)C(C)(O)C1CN(c2ccc(F)c(-c3n[nH]c4ncccc34)n2)CCN1 (stereo not shown) [Compound 204] | > 1250 | < 500 | – |
| CC(C)CC1(C#N)CCN(c2ccc(F)c(-c3n[nH]c4ncccc34)n2)CC1 [Compound 417] | > 1250 | – | > 700 |
| CCC1CN(c2ccc(C(F)(F)F)c(-c3n[nH]c4ncccc34)n2)CCC1CN (stereo not shown) [Compound 465] | > 1250 | – | < 500 |
| CC(O)(C1CC1)C1CN(c2ccc(F)c(-c3n[nH]c4ncccc34)n2)CCN1 (stereo not shown) [Compound 273] | > 1250 | < 2800 | – |
| CC(C)C[C@@H]1CN(c2cccc(-c3n[nH]c4ncccc34)n2)CCN1 [Compound 235] | < 2800 | – | – |
| CC(C)CC1(C)CN(c2ccc(C(F)(F)F)c(-c3n[nH]c4ncccc34)n2)CCC1N (stereo not shown) [Compound 388] | – | < 500 | < 50 |
| CC(C)C[C@H]1CN(c2cccc(-c3n[nH]c4ncccc34)n2)CC[C@H]1N [Compound 168] | < 500 | – | – |
| CC(C)C(C)(O)C1CN(c2ccc(F)c(-c3n[nH]c4ncccc34)n2)CCN1C (stereo not shown) [Compound 229] | > 1250 | > 1250 | – |
| c1cc(-c2n[nH]c3ncccc23)nc(N2CCCNCC2)c1 [Compound 1] | – | < 500 | < 50 |
| CC(C)C[C@H]1CN(c2cccc(-c3n[nH]c4ncccc34)n2)CCN1 [Compound 7, (S)-3-(6-(3-isobutylpiperazin-1-yl)pyridin-2-yl)-1H-pyrazolo[3,4-b]pyridine] | < 2800 | – | – |

| SMILES | Ki (PKC alpha kinase) [nM] | Ki (PKC delta kinase) [nM] | Ki (PKC theta kinase) [nM] |
| --- | --- | --- | --- |
| CC(N)[C@H]1CCCN(c2ccc(F)c(-c3n[nH]c4ncccc34)n2)C1 (stereo partly shown) [Compound 263] | – | < 2800 | < 500 |
| CC(C)C(C)(O)C1CN(c2ccc(Cl)c(-c3n[nH]c4ncccc34)n2)CCN1 (stereo not shown) [Compound 438] | – | < 500 | – |
| CC1(CN)CCN(c2ccc(C(F)(F)F)c(-c3n[nH]c4ncccc34)n2)CC1 [Compound 463] | > 1250 | – | > 700 |
| CC(C)C(C)(O)C1CN(c2ccc(C(F)(F)F)c(-c3n[nH]c4ncccc34)n2)CCN1 (stereo not shown) [Compound 237] | – | < 2800 | – |
| NCC1CN(c2ccc(F)c(-c3n[nH]c4ncccc34)n2)CCC1O (stereo not shown) [Compound 297] | – | > 1250 | – |
| CNC(C1CCCN(c2ccc(F)c(-c3n[nH]c4ncccc34)n2)C1)C(C)(C)C (stereo not shown) [Compound 409] | – | < 2800 | < 50 |
| CC(C)C(C)(O)C1CN(c2ccc(F)c(-c3n[nH]c4ncccc34)n2)CCN1 (stereo not shown) [Compound 179] | < 2800 | < 500 | – |
| CC(C)C[C@@H]1CN(c2ccc(F)c(-c3n[nH]c4ncccc34)n2)CCN1 [Compound 192] | > 1250 | < 2800 | – |
| C#Cc1cnc2[nH]nc(-c3cccc(N4CCCNCC4)n3)c2c1 [Compound 2] | – | – | < 500 |
| c1ccc(C2CN(c3cccc(-c4n[nH]c5ncccc45)n3)CCN2)cc1 (stereo not shown) [Compound 21] | < 2800 | – | – |
| CC(C)C(C)(O)C1CN(c2cncc(-c3n[nH]c4ncccc34)n2)CCN1 (stereo not shown) [Compound 470] | < 500 | – | – |
| CC(C)C(C)(O)C1CN(c2ccc(F)c(-c3n[nH]c4ncccc34)n2)CCN1 (stereo not shown) [Compound 205] | > 1250 | > 1250 | – |
| N#CCCC1CN(c2ccc(C(F)(F)F)c(-c3n[nH]c4ncccc34)n2)CCC1O (stereo not shown) [Compound 460] | – | – | < 500 |
| CC(C)C(C)(O)C1CN(c2ccc(F)c(-c3n[nH]c4ncccc34)n2)CCN1C (stereo not shown) [Compound 231] | – | < 500 | < 50 |
| CC(C)CC1CN(c2cncc(-c3n[nH]c4ncccc34)n2)CCC1N (stereo not shown) [Compound 468] | < 500 | – | < 50 |
| CC(C)C[C@H]1CN(c2ccc(F)c(-c3n[nH]c4ncccc34)n2)CCN1 [Compound 112] | > 1250 | < 500 | – |
| CC(C)C(O)[C@@H]1CCCN(c2ccc(F)c(-c3n[nH]c4ncccc34)n2)C1 (stereo partly shown) [Compound 279] | – | – | > 700 |
| Fc1ccc(N2CCCC(C3CCCN3)C2)nc1-c1n[nH]c2ncccc12 (stereo not shown) [Compound 315] | – | – | > 700 |
| C[C@](O)(c1ccccc1)[C@@H]1CN(c2ccc(F)c(-c3n[nH]c4ncccc34)n2)CCN1 [Compound 276] | – | – | < 50 |
